This note sets out measurements from patent publication US20170121315A1, “HETEROBICYCLICALLY SUBSTITUTED 4-OXOBUTANE ACID DERIVATIVES AND USE THEREOF” (priority 2014, published 2017).

Common to all, as to type: biochemical
The target in one assay is T1, MMP-9 (Homo sapiens, UniProt P14780).
T1 construct: purchased R&D Systems 911-MP
The experiment in a line: In vitro MMP-9 inhibition test. Particulars: human MMP-9. The gist of the method: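 Recombinant MMP-9, APMA-activated, at ~0.1 nM final in 50 mM Tris/HCl pH 7.5, 10 mM CaCl2, 150 mM NaCl, 0.05% Brij-35, with compound in DMSO (e.g. 1 nM–30 μM). Reaction started with 10 μM Mca-PLGL-Dpa(Dnp)-AR-NH2, and fluorescence (ex 320/em 410 nm) was followed e.g. 120 min at 32 °C. IC50 is the concentration giving 50% signal.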

Another assay deals with T2, MMP-13 (Homo sapiens, UniProt P45452).
T2 construct: purchased R&D Systems 511-MP
Briefly: In vitro MMP-13 inhibition test. The conditions noted are these: human MMP-13. The gist of the method: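 APMA-activated recombinant enzyme (e.g. 0.1 nM final) was tested with compounds (e.g. 1 nM–30 µM, DMSO) in 50 mM Tris/HCl pH 7.5, 10 mM CaCl2, 150 mM NaCl, 0.05% Brij-35. Mca-PLGL-Dpa(Dnp)-AR-NH2 was the substrate (e.g. 10 µM). Fluorescence (ex 320/em 410 nm) was followed e.g. 120 min at 32 °C, and IC50 was read at 50% signal.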

Another assay has as its target T3, MMP-16 (Homo sapiens, UniProt P51512).
T3 construct: purchased R&D Systems 1785-MP
The experiment in a line: In vitro MMP-16 inhibition test. Particulars: human MMP-16. The gist of the method:
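Furin-activated recombinant MMP-16 (e.g. 1 nM final) with compound (e.g. 1 nM–30 μM, DMSO) in 50 mM Tris/HCl pH 7.5, 10 mM CaCl2, 150 mM NaCl, 0.05% Brij-35. Reaction started with quenched Mca-Lys-Pro-Leu-Gly-Leu-Dpa(Dnp)-Ala-Arg-NH2 (e.g. 5 μM) and read by fluorescence (ex 320/em 410 nm), e.g. over 120 min at 32 °C. IC50 taken at 50% signal.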

The next assay has as its target T4, MMP-7 (Homo sapiens, UniProt P09237).
T4 construct: purchased R&D Systems 907-MP
T4 sequence (P09237 95-267): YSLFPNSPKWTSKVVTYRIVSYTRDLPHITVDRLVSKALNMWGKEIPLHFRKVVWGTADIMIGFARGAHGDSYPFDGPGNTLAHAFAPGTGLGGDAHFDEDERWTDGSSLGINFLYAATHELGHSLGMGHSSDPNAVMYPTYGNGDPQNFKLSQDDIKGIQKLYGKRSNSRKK
Briefly: In vitro MMP-7 inhibition test. Particulars: human MMP-7.

Another assay has as its target T5, MMP-3 (Homo sapiens, UniProt P08254).
T5 construct: purchased R&D Systems 513-MP
Briefly: In vitro MMP-3 inhibition test. Particulars: human MMP-3. The method, boiled down: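 APMA-activated recombinant MMP-3 (e.g. 2 nM final) with compound in Tris/HCl pH 7.5, CaCl2, NaCl, Brij-35; reaction started with quenched Mca/Dnp peptide substrate (e.g. 10 μM final). Fluorescence (ex 320/em 410 nm) followed e.g. 120 min at 32 °C; IC50 is concentration giving 50% signal.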

The structures appear in SMILES notation.

Usually IC50 stands for the concentration needed to halve the response being measured. A low value points to greater potency in that assay.

T1 sequence (P14780 107-707 limits assumed): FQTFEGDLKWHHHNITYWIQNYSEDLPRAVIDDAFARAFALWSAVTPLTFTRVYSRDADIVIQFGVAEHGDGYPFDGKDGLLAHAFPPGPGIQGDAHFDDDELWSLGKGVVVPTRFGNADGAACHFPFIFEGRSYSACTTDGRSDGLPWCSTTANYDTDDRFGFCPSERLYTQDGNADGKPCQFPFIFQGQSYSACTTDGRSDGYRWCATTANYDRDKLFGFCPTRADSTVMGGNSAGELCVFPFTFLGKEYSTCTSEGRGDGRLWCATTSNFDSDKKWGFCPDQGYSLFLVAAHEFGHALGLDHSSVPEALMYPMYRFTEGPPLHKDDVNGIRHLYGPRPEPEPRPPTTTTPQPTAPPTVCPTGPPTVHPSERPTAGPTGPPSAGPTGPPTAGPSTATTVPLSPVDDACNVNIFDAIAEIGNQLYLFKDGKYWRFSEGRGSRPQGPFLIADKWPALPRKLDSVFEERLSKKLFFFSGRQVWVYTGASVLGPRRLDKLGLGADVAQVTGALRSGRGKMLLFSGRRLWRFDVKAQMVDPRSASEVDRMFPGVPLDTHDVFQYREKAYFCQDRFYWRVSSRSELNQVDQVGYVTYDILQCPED
T3 sequence (P51512 120-564 limits assumed): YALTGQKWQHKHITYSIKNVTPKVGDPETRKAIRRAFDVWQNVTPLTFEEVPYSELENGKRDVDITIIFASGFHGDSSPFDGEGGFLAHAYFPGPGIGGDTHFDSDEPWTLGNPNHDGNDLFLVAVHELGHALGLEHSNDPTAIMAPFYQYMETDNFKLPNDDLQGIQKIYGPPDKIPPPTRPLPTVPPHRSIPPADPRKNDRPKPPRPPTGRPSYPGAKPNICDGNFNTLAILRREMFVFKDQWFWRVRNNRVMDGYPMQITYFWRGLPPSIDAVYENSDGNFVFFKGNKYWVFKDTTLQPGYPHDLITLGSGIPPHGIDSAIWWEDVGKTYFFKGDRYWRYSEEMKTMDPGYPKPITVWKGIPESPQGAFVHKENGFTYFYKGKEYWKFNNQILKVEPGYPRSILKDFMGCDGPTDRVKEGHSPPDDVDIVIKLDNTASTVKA
T5 sequence (P08254 100-477): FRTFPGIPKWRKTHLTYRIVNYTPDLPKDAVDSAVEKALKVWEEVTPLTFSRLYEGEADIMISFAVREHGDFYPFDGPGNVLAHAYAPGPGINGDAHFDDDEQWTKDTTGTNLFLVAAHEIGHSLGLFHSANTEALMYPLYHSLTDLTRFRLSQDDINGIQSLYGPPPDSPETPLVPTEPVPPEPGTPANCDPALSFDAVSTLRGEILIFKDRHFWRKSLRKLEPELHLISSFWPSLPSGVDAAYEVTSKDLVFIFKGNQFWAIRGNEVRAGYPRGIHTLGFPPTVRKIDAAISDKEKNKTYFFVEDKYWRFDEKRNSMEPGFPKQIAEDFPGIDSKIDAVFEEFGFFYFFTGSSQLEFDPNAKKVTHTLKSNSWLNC

In the case of `O=C(CC(CCn1nnc2ccccc2c1=O)C(=O)O)c1cc2cc(OCCCC(F)(F)F)ccc2o1` (single isomer, unassigned; enantiomer 2) [Example 13, (+)-4-Oxo-2-[2-(4-oxo-1,2,3-benzotriazin-3(4H)-yl)ethyl]-4-[5-(4,4,4-trifluorobutoxy)-1-benzofur-2-yl]butanoic acid (enantiomer 2)], the IC50 against MMP-9 is 3.8 µM; against MMP-13, 4.6 µM; on MMP-16, over 40 µM; at MMP-7 it was over 40 µM; against MMP-3, over 40 µM.
For `O=C(O)[C@@H]1[C@@H](Cn2nnc3ccc(C(F)(F)F)cc3c2=O)CC[C@H]1C(=O)c1cc2cc(OCCc3ccccc3)ccc2o1` (single isomer, unassigned; enantiomer 2) [Example 159, (+)-(1RS,2SR,5RS)-2-{[4-Oxo-6-(trifluoromethyl)-1,2,3-benzotriazin-3(4H)-yl]methyl}-5-{[5-(2-phenylethoxy)-1-benzofur-2-yl]carbonyl}cyclopentanecarboxylic acid (enantiomer 2)], the half-maximal inhibitory concentration (IC50) is 0.68 µM against MMP-9; 0.66 µM against MMP-13; 3 µM against MMP-16; 0.3 µM at MMP-7; 2.2 µM on MMP-3.
The corresponding values for `O=C(CC(CCn1nnc2ccccc2c1=O)C(=O)O)c1coc2cc(OCC3CCCCC3)ccc12` (single isomer, unassigned; (+)) [Example 82, (+)-4-[6-(Cyclohexylmethoxy)-1-benzofur-3-yl]-4-oxo-2-[2-(4-oxo-1,2,3-benzotriazin-3(4H)-yl)ethyl]butanoic acid] are 0.094 µM, 1.3 µM, over 40 µM, over 40 µM and 16 µM.
The corresponding values for `O=C(CC(CCn1nnc2ccccc2c1=O)C(=O)O)c1noc2cc(OCc3ccccc3)ccc12` (racemic) [Example 145, (+/−)-4-[6-(Benzyloxy)-1,2-benzoxazol-3-yl]-4-oxo-2-[2-(4-oxo-1,2,3-benzotriazin-3(4H)-yl)ethyl]butanoic acid] are 0.17 µM, 1.5 µM, 25 µM, over 40 µM and 8.9 µM.
Turning to `O=C(CC(CCn1nnc2ccccc2c1=O)C(=O)O)c1noc2cc(OCC3CC3)ccc12` (racemic) [Example 150, (+/−)-4-[6-(Cyclopropylmethoxy)-1,2-benzoxazol-3-yl]-4-oxo-2-[2-(4-oxo-1,2,3-benzotriazin-3(4H)-yl)ethyl]butanoic acid], the IC50 against MMP-9 came out at 0.65 µM; against MMP-13, 2.4 µM; against MMP-16 it was 11 µM; against MMP-7 it was 29 µM; against MMP-3, 33 µM.
As to `O=C(CC(CCn1nnc2ccccc2c1=O)C(=O)O)c1cc2ccc(OCCc3ccccc3)cc2s1` (racemic) [Example 114, (+/−)-4-Oxo-2-[2-(4-oxo-1,2,3-benzotriazin-3(4H)-yl)ethyl]-4-[6-(2-phenylethoxy)-1-benzothiophen-2-yl]butanoic acid], the IC50 at MMP-9 was 0.24 µM; against MMP-13, 0.25 µM; on MMP-16, 28 µM; against MMP-7, 5.3 µM; on MMP-3, 3.2 µM.
For `O=C(CC(CCn1nnc2ccccc2c1=O)C(=O)O)c1cc2cc(OCCc3ccc(Cl)cc3)ccc2o1` (racemic) [Example 2, (+/−)-4-{5-[2-(4-Chlorophenyl)ethoxy]-1-benzofur-2-yl}-4-oxo-2-[2-(4-oxo-1,2,3-benzotriazin-3(4H)-yl)ethyl]butanoic acid], the IC50 on MMP-9 is 24 µM; on MMP-13, 2.2 µM; against MMP-16, over 40 µM; against MMP-7, over 40 µM; at MMP-3, 25 µM.
As for `O=C(CC(CCn1nnc2ccccc2c1=O)C(=O)O)c1coc2cc(OCC3CCCC3)ccc12` (single isomer, unassigned; (+)) [Example 80, (+)-4-[6-(Cyclopentylmethoxy)-1-benzofur-3-yl]-4-oxo-2-[2-(4-oxo-1,2,3-benzotriazin-3(4H)-yl)ethyl]butanoic acid], the IC50 is 0.28 µM against MMP-9; 3.6 µM on MMP-13; 21 µM at MMP-16; over 40 µM against MMP-7; 5.7 µM against MMP-3.
Take `O=C(C[C@H](CCn1nnc2ccccc2c1=O)C(=O)O)c1noc2cc(OCC3CCOCC3)ccc12` (single isomer, unassigned; enantiomer 2) [Example 135]: the half-inhibitory concentration (IC50) against MMP-9 was 1.7 µM; at MMP-13, 1.5 µM; at MMP-16, 36 µM; against MMP-7, over 40 µM; against MMP-3, 12 µM.
As to `O=C(O)[C@H]1[C@H](Cn2nnc3ccc(C(F)(F)F)cc3c2=O)CC[C@@H]1C(=O)c1cc2cc(OCCc3ccccc3)ccc2o1` (racemic) [Example 157, (+/−)-(1RS,2SR,5RS)-2-{[4-Oxo-6-(trifluoromethyl)-1,2,3-benzotriazin-3(4H)-yl]methyl}-5-{[5-(2-phenylethoxy)-1-benzofur-2-yl]carbonyl}cyclopentanecarboxylic acid (racemate)], the half-maximal inhibitory concentration (IC50) on MMP-9 is 0.19 µM; on MMP-13, 0.29 µM; against MMP-16 it was 4.9 µM; on MMP-7 it was 0.16 µM; on MMP-3, 1.1 µM.
`O=C(CC(CCn1nnc2ccccc2c1=O)C(=O)O)c1noc2cc(OCC3CCCCC3)ccc12` (racemic) [Example 153, (+/−)-4-[6-(Cyclohexylmethoxy)-1,2-benzoxazol-3-yl]-4-oxo-2-[2-(4-oxo-1,2,3-benzotriazin-3(4H)-yl)ethyl]butanoic acid]: the IC50 at MMP-9 was 0.45 µM; against MMP-13, 2.8 µM; at MMP-16 it was over 40 µM; on MMP-7 it was over 40 µM; on MMP-3, 12 µM.
`CCCCCOc1ccc2c(C(=O)CC(CCn3nnc4ccccc4c3=O)C(=O)O)noc2c1` (racemic) [Example 140, (+/−)-4-Oxo-2-[2-(4-oxo-1,2,3-benzotriazin-3(4H)-yl)ethyl]-4-[6-(pentyloxy)-1,2-benzoxazol-3-yl]butanoic acid]: the IC50 at MMP-9 was 0.043 µM; at MMP-13 it was 0.33 µM; against MMP-16 it was 24 µM; on MMP-7, over 40 µM; on MMP-3, 14 µM.
